Source: article PMC9551036, “A selective and orally bioavailable VHL-recruiting PROTAC achieves SMARCA2 degradation in vivo” (Nature Communications, 2022)
Several values for one entry are separate records, joined by “and”; a condition that tells them apart may be missing. Equal values may be shown once. Read-outs that look alike come from different tables or passages of the source.

Assays:
[1] = biological target: T1, (Homo sapiens, UniProt P51532); test: TR-FRET ternary complex affinity and cooperativity, SMARCA4; assay type: binding
T1 construct: P51532, residues 1448–1569 with additional N-terminal SM residues; GST (TEV site) (N); His6 (TEV site) (N, cleaved yes); made in house; host or cells: SMARCA4^BD: Escherichia coli BL21(DE3)

SMARCA4 [2] = biological target: T2, SMARCA4 (Homo sapiens, UniProt P51532); test: Imaging-based SMARCA4 protein assay in RKO cells; assay type: cell-based; design: endogenous in cells; host or cells: RKO, HCT116, LU99, HCC-364, HCT-15, HCC4006, SK-N-AS; conditions: individual replicates
Procedure: (§1) 1250 cells per well in 60 µl medium were plated in flat bottom, poly-lysin coated 384-well plates (CellCarrier Ultra, Perkin Elmer). The next day, test compounds (10 µl of serial dilutions) and DMSO controls were diluted in DMEM medium such that the final DMSO content was <1% or were added using an ultrasound dispensing system. 4 wells were reserved for a background measurement. […] After aspirating the fixing solution, the cells were washed once with 25 µl PBS. 25 µl of blocking buffer (10% goat serum in PBS) was added and cells were incubated for 30 min, then washed once with PBS. Cells were stained with 20 µl of SMARCA2/4 primary antibody solution (Sigma #HPA029981 RRID:AB_10602406 1:1000 or Cell Signalling #52251 clone E9O6 RRID:AB_2799410 1:1000 in PBS with 10% FCS) for 2–4 h at room temperature. Cells were again washed once with PBS. […] The cell layer was then washed once with 25 µl PBS, the wells were filled with 25 µl PBS and the plates were sealed with an adhesive sheet. They were then imaged on the Opera Phoenix (mean intensity in the nucleus). Results were computed as percent of controls ((value of test compound − background)/(value of the negative control DMSO—background) multiplied by 100). EC50 values were computed using a 4-parametric logistic model.

SMARCA4 [3] = biological target: T2, SMARCA4; test: SMARCA4 capillary electrophoresis protein assay in RKO cells; assay type: cell-based; design: endogenous in cells; host or cells: RKO, HCT116, LU99, HCC-364, HCT-15, HCC4006, SK-N-AS; conditions: mean ± SD; for Dmax: RKO
Procedure: 130,000–200,000 cells were seeded in 24-well plates and incubated until settled down or overnight. Compounds were dissolved in DMSO and added to cells in indicated concentrations using a digital dispenser following an optional media change. Cells were incubated for 4 or 18 h as indicated. For SMARCA2/4 half-life determination, 150,000 or 200,000 cells were seeded in 24-well plates. The next day, 50 µg/ml cycloheximide (Sigma) was added and cells were incubated for 1–24 h. For SMARCA2/4 re-synthesis measurements, 200,000 cells were seeded in 24-well plates. The next day, 100 nM compound 6 was added for 4 h to degrade SMARCA2/4, and a sample was taken as baseline for normalisation. To allow re-synthesis, a VHL binder (compound 32, 25 or 50 µM) was then added for 3 or 24 h. Medium was removed, cells were washed with PBS and lysed with 80 µl Lysis Buffer (MSD Tris Lysis Buffer (#R60TX-2) + Halt Inhibitor Cocktail (100x) + Benzonase 0.5 µL/ml). Samples were frozen at −80 °C and thawed at room temperature before use. Samples were transferred to a V-bottom plate and insoluble debris was pelleted by centrifugation for 5 min at maximum speed. The supernatant was transferred to a fresh plate. Master Mix and Ladder were prepared according to manufacturer’s instructions for 12–230 kDa Wes Separation Module, 8 × 25 capillary cartridges, Protein Simple #SM-W004 with Anti-Rabbit Detection Module for Wes, Peggy Sue or Sally Sue, Protein Simple #DM-001. 4.8 µl lysate were mixed with 1.2 µl Master Mix to achieve a protein concentration of ~0.5 µg/µl. Antibodies were diluted in Antibody Diluent II (SMARCA2 Sigma #HPA029981 RRID:AB_10602406 1:25–100, SMARCA4 Cell Signalling #49360 clone D1Q7F RRID:AB_2728743 1:15–120 or Abcam #ab110641 clone EPNCIR111A RRID:AB_10861578 1:60, GAPDH Abcam #ab9485 RRID:AB_307275 1:250). Wes plates were prepared and run according to manufacturer’s instructions. Proteins were quantified with accompanying Compass Software. SMARCA2/4 protein levels were normalised to GAPDH. […] Where applicable, curves were fitted using a 4-parametric logistic model.

SMARCA2 = SMARCA2 (Homo sapiens, UniProt P51531); test: Imaging-based SMARCA2 protein assay in RKO cells; assay type: cell-based; design: endogenous in cells; host or cells: RKO, NCI-H1568, A549, HCT116, LU99, HCC-364, HCT-15, HCC4006, SK-N-AS; conditions: individual replicates
Procedure: as §1, with “Cells were stained with 20 µl of SMARCA2/4 primary antibody solution (Sigma #HPA029981 RRID:AB_10602406 1:1000 or Cell Signalling #52251 clone E9O6 RRID:AB_2799410 1:1000 in PBS with 10% FCS) for 2–4 h at room temperature.” left out, “Results were computed as percent of controls ((value of test compound − background)/(value of the negative control DMSO—background) multiplied by 100).” left out

[4] = TR-FRET competition for SMARCA4BD, without VCB, mean ± SD, read-out: TR-FRET SMARCA4BD EC50
[5] = binary, PROTAC alone, individual replicates, read-out: SMARCA4 BD EC50
[6] = 4h, read-out: RKO (4h) SMARCA4 DC50
[7] = 18h, read-out: RKO (18h) SMARCA4 DC50
[8] = 4h, read-out: RKO (4h) SMARCA2 DC50
[9] = 18h, read-out: RKO (18h) SMARCA2 DC50

SMARCA2, sequence (P51531 whole entry): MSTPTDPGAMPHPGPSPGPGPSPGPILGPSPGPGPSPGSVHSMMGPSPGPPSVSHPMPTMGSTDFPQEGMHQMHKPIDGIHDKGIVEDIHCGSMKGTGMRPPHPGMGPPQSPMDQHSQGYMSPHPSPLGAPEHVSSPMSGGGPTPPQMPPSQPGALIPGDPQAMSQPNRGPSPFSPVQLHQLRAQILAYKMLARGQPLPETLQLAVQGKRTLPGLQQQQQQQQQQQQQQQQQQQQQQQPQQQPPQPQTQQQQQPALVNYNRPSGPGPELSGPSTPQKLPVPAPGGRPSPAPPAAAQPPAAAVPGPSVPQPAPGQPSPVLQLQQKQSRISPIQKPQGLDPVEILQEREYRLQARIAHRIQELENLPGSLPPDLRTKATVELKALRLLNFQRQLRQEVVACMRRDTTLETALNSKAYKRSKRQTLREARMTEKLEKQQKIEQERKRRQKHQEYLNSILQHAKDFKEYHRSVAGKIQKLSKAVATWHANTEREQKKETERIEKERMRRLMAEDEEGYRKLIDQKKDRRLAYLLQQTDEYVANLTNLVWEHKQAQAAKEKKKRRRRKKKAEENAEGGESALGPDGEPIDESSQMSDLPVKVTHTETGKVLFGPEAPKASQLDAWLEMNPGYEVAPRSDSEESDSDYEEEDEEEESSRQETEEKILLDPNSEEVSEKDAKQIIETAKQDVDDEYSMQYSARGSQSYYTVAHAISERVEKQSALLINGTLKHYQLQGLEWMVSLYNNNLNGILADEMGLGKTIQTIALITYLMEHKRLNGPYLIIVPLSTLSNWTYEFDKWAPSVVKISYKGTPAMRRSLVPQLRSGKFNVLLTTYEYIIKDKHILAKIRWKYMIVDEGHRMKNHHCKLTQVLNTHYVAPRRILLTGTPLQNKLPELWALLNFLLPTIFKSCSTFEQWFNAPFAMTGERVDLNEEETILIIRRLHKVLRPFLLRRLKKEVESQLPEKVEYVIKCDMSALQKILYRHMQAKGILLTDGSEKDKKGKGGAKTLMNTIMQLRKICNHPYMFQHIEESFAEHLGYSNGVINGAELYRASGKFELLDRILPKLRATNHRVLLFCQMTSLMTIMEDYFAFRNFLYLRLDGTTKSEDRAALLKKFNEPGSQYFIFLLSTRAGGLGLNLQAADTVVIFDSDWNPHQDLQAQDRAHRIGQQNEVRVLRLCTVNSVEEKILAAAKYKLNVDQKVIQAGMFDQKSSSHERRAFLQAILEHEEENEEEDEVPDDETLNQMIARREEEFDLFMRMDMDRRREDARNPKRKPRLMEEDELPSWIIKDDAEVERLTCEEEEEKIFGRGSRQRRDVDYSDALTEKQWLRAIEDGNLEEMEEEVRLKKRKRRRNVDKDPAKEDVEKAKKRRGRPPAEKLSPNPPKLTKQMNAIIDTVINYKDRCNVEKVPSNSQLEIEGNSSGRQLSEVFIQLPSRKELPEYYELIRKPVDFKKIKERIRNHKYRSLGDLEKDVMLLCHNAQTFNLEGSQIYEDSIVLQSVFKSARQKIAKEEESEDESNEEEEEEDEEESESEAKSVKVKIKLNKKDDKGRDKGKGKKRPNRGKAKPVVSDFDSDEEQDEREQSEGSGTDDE
T2 sequence (P51532 whole entry): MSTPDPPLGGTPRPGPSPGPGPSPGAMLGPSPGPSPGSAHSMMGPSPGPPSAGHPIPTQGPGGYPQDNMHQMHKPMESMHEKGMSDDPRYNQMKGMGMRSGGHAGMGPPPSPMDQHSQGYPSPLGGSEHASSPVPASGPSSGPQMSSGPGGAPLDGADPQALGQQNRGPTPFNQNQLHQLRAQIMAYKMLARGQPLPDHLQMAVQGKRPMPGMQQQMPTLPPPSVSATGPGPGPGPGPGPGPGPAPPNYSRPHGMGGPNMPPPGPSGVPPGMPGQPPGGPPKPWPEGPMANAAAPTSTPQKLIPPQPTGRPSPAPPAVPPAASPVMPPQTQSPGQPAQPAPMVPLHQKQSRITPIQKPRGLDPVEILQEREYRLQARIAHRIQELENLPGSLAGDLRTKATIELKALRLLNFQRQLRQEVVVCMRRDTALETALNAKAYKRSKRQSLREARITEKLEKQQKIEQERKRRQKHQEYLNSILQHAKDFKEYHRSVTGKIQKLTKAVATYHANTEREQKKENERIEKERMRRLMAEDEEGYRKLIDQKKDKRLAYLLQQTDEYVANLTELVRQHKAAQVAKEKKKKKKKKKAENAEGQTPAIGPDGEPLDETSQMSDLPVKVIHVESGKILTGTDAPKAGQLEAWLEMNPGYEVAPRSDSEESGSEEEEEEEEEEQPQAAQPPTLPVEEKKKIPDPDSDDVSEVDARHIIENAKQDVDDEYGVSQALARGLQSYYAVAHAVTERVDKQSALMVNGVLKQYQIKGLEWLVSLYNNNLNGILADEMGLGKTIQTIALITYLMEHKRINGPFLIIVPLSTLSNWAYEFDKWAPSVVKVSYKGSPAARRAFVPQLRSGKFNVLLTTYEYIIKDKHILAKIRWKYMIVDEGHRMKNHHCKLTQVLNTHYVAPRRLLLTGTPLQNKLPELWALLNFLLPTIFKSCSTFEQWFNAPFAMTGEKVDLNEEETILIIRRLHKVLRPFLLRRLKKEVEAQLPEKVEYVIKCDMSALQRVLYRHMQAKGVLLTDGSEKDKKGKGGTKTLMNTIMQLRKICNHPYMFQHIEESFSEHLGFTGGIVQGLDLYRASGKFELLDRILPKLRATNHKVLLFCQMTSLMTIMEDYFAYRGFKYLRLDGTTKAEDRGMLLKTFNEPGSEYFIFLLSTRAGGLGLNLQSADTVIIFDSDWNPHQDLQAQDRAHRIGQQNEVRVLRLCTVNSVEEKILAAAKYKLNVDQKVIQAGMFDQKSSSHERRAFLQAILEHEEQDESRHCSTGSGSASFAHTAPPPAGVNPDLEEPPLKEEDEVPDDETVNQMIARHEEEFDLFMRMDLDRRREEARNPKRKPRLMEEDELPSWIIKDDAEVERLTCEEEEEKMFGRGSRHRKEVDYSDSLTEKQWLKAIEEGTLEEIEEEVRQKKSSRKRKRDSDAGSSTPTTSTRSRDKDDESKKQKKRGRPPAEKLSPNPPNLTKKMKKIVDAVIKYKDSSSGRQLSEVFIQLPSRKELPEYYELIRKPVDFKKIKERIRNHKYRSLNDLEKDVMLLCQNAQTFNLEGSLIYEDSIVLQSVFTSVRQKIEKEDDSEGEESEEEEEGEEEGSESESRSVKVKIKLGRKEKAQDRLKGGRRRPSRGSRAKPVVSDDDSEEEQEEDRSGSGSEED
T1 sequence (P51532 1448-1569): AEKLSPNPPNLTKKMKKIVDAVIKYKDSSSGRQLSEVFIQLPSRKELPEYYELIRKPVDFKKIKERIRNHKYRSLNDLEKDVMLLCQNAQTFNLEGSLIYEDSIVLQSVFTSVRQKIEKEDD

SMILES | EC50 [1, 4] [nM] | EC50 [1, 5] | DC50 (SMARCA4 [2]; [6]) | DC50 (SMARCA4 [2]; [7]) | DC50 (SMARCA4 [3]; RKO (4 h)) [nM] | DC50 (SMARCA4 [3]; RKO (18 h)) [nM] | Dmax (SMARCA4 [3]; RKO (18 h)) [%] | DC50 (SMARCA2; [8]) | DC50 (SMARCA2; [9]) | Dmax (SMARCA4 [3]; RKO (4 h)) [%] | SMARCA4 Dmax (SMARCA4 [3]; RKO (18 h)) [%]
Cc1ncsc1-c1ccc([C@H](COC(C)CN2CCC(c3ccc4c(c3)n(C3CCCC3)c3nc(=O)c5c(Br)cccc5n43)CC2)NC(=O)[C@@H]2C[C@@H](O)CN2C(=O)[C@@H](NC(=O)C2(F)CC2)C(C)(C)C)cc1 (stereo partly shown) [compound 9] | 265 ± 34 | 228 nM and 295 nM and 276 nM | > 25000 nM | 912 nM and > 833 nM (2×) and 3.47 µM | > 25000 | 1780 | 88 ± 16 | 11.4 nM and 10.4 nM and 9.77 nM and 18.8 nM | 4.73 nM and 4.97 nM and 4.9 nM and 3.53 nM |  | 
Cc1ncsc1-c1ccc([C@H](COCCN2CCC(c3ccc4c(c3)n(C3CCCC3)c3nc(=O)c5c(Br)cccc5n43)CC2)NC(=O)[C@@H]2C[C@@H](O)CN2C(=O)[C@@H](NC(=O)C2(N(C)C)CC2)C(C)(C)C)cc1 [compound 26] | 149 ± 41 | 136 nM and 180 nM and 162 nM and 117 nM and 111 nM and 126 nM and 154 nM and 147 nM and 247 nM | 66.9 nM and 93.6 nM and 83.9 nM | 61.5 nM and 91.3 nM and 101 nM | 81 ± 14 | 83 ± 21 | 82 ± 5 | 13.4 nM and 7.13 nM and 22 nM and 9.24 nM | 3.5 nM and 6.73 nM and 7.09 nM | 61 ± 15 | 
Cc1ncsc1-c1ccc([C@H](CCCCN2CCC(c3ccc4c(c3)n(C3CCCC3)c3nc(=O)c5c(Br)cccc5n43)CC2)NC(=O)[C@@H]2C[C@@H](O)CN2C(=O)[C@@H](NC(=O)C2(F)CC2)C(C)(C)C)cc1 [compound 25] | 182 ± 57 | 134 nM and 202 nM and 155 nM and 262 nM |  | 31.7 nM and 60 nM and 33.5 nM |  | 40 ± 16 |  | 4.26 nM and 1.82 nM and 3.89 nM and 3.46 nM | 2 nM and 2.63 nM and 3.33 nM |  | 52 ± 21
Cc1ncsc1-c1ccc([C@H](COC(C)CN2CCC(c3ccc4c(c3)n(C3CCCC3)c3nc(=O)c5c(Br)cccc5n43)CC2)NC(=O)[C@@H]2C[C@@H](O)CN2C(=O)[C@@H](NC(=O)C2(N(C)C)CC2)C(C)(C)C)cc1 (stereo partly shown) [compound 10] | 191 ± 85 | 108 nM and 250 nM and 259 nM | > 25000 nM | 103 nM and 218 nM and 235 nM | 83 ± 22 | 174 ± 72 | 68 ± 15 | 8.19 nM and 6.54 nM and 2.93 nM and 10.6 nM | 1.26 nM and 3.06 nM and 6.17 nM | 34 ± 6 | 
Nc1cccc2c1c(=O)nc1n(C3CCCC3)c3ccccc3n21 [compound 2] | 2400 | 2340 nM and 2880 nM and 2050 nM | 2.7 µM and > 25 µM (2×) | > 25000 nM | > 25000 | > 25000 |  | > 25000 nM | > 25000 nM |  | 
Cc1ncsc1-c1ccc(CNC(=O)[C@@H]2C[C@H](O)CN2C(=O)[C@@H](NC(=O)C2(F)CC2)C(C)(C)C)c(OCCN2CCC(c3ccc4c(c3)n(C3CCCC3)c3nc(=O)c5c(Br)cccc5n43)CC2)c1 [compound 19] | 158 ± 27 | 194 nM and 151 nM and 129 nM | > 25000 nM | > 25000 nM | > 25000 | > 25000 |  | > 25000 nM | > 25000 nM |  | 
